Assay results from patent US11440870B2, “Cannabidiolic acid esters compositions and uses thereof” (Yissum Research Development Company of the Hebrew …, priority 2017, dated 2022).

Test system: anxiety-like responding in rats
Test: Light-dark box emergence test after foot shock stress (anxiety-like responding)
Type: in vivo, male Sprague-Dawley rats
Details: for Time spent in the light box after foot shock (FS) stress vs No FS: 0.01 μg·kg−1 i.p., 45 min before 5 min test, 24 h after FS
Source text: Animal procedures complied with the Canadian Council on Animal Care, and the protocols were approved by the Institutional Animal Care Committee at University of Guelph. Animal studies are reported in compliance with the ARRIVE guidelines (Kilkenny et al., 2010; McGrath and Lilley, 2015). A total of 200 näive male Sprague-Dawley rats, obtained from Charles River Laboratories (St Constant, Quebec), were used for all in vivo studies. Rats were individually housed (for acute nausea studies) or pair-housed [for anticipatory nausea and light-dark emergence studies] in home cages made of opaque white plastic (48×26×20 cm), containing bed-o-cob bedding from Harlan Laboratories, Inc. (Mississauga, Ontario), a brown paper towel, and Crinkl'Nest™ from The Andersons, Inc. (Maumee, Ohio). Additionally, in the home cage, rats were provided with a soft white paper container that was 14 cm long and 12 cm in diameter. All rats were subjected to an ambient temperature of 21° C. and a 12/12 h light-dark schedule (lights off at 07:00 h) and maintained on food (Highland Rat Chow [8640]) and water ad libitum. For the acute and anticipatory nausea studies, their body weights ranged from 263 to 329 g on the day of conditioning. For the light-dark emergence studies, their body weights ranged from 320 to 387 g on the day of test.
For the in vivo experiment 3, anxiolytic-like responding was evaluated using the light-dark emergence apparatus, which consisted of an opaque white plastic rectangular box that was divided into two compartments: a small (25 cm wide×20.5 cm long×20.5 cm high) enclosed dark box built of opaque black plastic with a door (8 cm wide×10 cm high) leading to a larger (39.5 cm long×25 cm wide) open lit box. The open lit box was illuminated by one lamp (with a 60 W bulb, 180 lux in the light chamber) positioned 115 cm above the center of the lit box. A video camera was mounted over the top of the light-dark box, and the video tapes were analyzed by the Ethovision software (Noldus Information Technology, Leesburg, Va., USA) for the duration of time spent in the light box for the 5 min test. For the foot shock (FS) session, the rats were placed in sound attenuating MED Associates fear conditioning chambers (St. Albans, Vt., USA). The 6 min FS session consisted of six 0.8 mA foot shocks delivered 1 min apart. Each 0.5 s shock was preceded by a 30 s auditory tone (90 Db, 5000 Hz) as described by Bluett et al. (2014).
The effect of CBDA and HU-580 on anxiety-like responding was evaluated using the light-dark box emergence test following either foot shock stress or no foot shock (No FS) stress. […]

| SMILES | Time spent in the light box after foot shock (FS) stress vs No FS | Time spent in the light box after foot shock (FS) stress vs No FS, with 5-HT1A antagonist pretreatment (WAY100635 15 min before 0.01 μg·kg−1 HU-580 i.p., P=0.05) |
| --- | --- | --- |
| C=C(C)[C@@H]1CCC(C)=C[C@H]1c1c(O)cc(CCCCC)c(C(=O)O)c1O [CBDA, Cannabidiolic acid] | spent less time in the light box following FS stress than following No FS stress | – |
| C=C(C)[C@@H]1CCC(C)=C[C@H]1c1c(O)cc(CCCCC)c(C(=O)OC)c1O [HU-580, Cannabidiolic Acid Methyl Ester] | reversed the effect of FS | spent less time in the light box following FS stress than following No FS stress |
